{
  "source": "patent US20200113856A1",
  "about": "“NON-PRESCRIPTION MOTION SICKNESS MEDICATION CONTAINING AN ANALGESIC, AN H2 BLOCKER, AND AT LEAST ONE ANTACID” (priority 2018, published 2020)",
  "origin": "cited, not measured here",
  "key": {"blood pressure": {"system": "blood pressure", "settings": "several types of rat models susceptible to salt-sensitive hypertension, in contrast with sodium chloride"}, "reflux esophagitis": {"system": "reflux esophagitis", "settings": "patients with reflux esophagitis"}, "histamine H2 receptors": {"target": "histamine H2 receptors (Homo sapiens, UniProt P25021)", "sequence (P25021 whole entry)": "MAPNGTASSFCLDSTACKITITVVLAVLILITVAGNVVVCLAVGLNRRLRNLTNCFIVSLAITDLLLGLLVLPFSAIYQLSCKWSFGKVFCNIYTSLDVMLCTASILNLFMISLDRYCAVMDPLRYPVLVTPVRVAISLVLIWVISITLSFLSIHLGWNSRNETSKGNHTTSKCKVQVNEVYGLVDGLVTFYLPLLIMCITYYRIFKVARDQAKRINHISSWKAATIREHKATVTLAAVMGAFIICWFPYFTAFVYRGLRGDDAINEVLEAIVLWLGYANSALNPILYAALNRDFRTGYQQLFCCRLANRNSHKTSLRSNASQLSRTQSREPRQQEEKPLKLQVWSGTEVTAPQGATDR", "settings": "equimolar basis"}, "motion sickness": {"system": "motion sickness", "settings": "patch worn behind the ear"}, "platelet thromboxane": {"system": "platelet thromboxane", "settings": "high-dose, throughout the dosing interval"}, "risk of stroke": {"system": "risk of stroke", "settings": "in vivo"}},
  "data": [
    {"smiles": "CC(=O)Oc1ccccc1C(=O)O", "note": "[Aspirin, acetylsalicylic acid]", "values": [
      {"measurement": "time until effects begin", "setting": "pain or fever; for pain or fever", "value": "≤ 30", "unit": "min"}
    ]},
    {"smiles": "CC(=O)Nc1ccc(O)cc1", "note": "[Acetaminophen]", "values": [
      {"measurement": "duration of effects", "setting": "pain or fever; in vivo", "value": "between two and four hours"}
    ]},
    {"smiles": "O=C([O-])O.[Na+]", "note": "[Sodium bicarbonate, sodium hydrogen carbonate]", "values": [
      {"measurement": "effect on blood pressure", "setting": "blood pressure", "value": "no effect"}
    ]},
    {"smiles": "CNC(=C[N+](=O)[O-])NCCSCc1csc(CN(C)C)n1", "note": "[nizatidine]", "values": [
      {"measurement": "effectiveness as maintenance therapy versus famotidine", "setting": "reflux esophagitis", "value": "more effective H2RA than famotidine"}
    ]},
    {"smiles": "NC(N)=Nc1nc(CSCCC(N)=NS(N)(=O)=O)cs1", "note": "[famotidine]", "values": [
      {"measurement": "times more potent than cimetidine", "setting": "histamine H2 receptors", "value": "~20", "unit": "times"},
      {"measurement": "times more potent than nizatidine", "setting": "histamine H2 receptors", "value": "approximately 7.5 times"},
      {"measurement": "times more potent than ranitidine", "setting": "histamine H2 receptors", "value": "approximately 7.5 times"}
    ]},
    {"smiles": "CN1[C@@H]2C[C@@H](OC(=O)[C@H](CO)c3ccccc3)C[C@H]1[C@@H]1O[C@@H]12", "note": "[Scopolamine]", "values": [
      {"measurement": "duration of effectiveness of patch", "setting": "motion sickness", "value": "three days"}
    ]},
    {"smiles": "COc1ccc2cc([C@H](C)C(=O)O)ccc2c1", "note": "[Naproxen]", "values": [
      {"measurement": "suppression of platelet thromboxane", "setting": "platelet thromboxane", "value": "near-complete suppression"},
      {"measurement": "associated risk of stroke compared with ibuprofen", "setting": "risk of stroke", "value": "roughly 50%"}
    ]}
  ]
}
